According to ChEMBL document CHEMBL2177053, “Current landscape of phosphodiesterase 10A (PDE10A) inhibition” (J Med Chem, 2012):
Blank lines part the entries; values can stand above or below the compound they belong to.

Tests used:
[1] = molecular target: T1, cAMP and cAMP-inhibited cGMP 3',5'-cyclic phosphodiesterase 10A (Homo sapiens, UniProt Q9Y233); assay: Inhibition of PDE10A using [3H]cAMP and [3H]cGMP as substrate after 30 mins by scintillation counting
[2] = molecular target: T1, cAMP and cAMP-inhibited cGMP 3',5'-cyclic phosphodiesterase 10A; assay: Inhibition of PDE10A
[3] = Inhibition of bovine PDE10A using [3H]cAMP as substrate after 90 mins by scintillation counting; parameters: species or system Bos taurus
[4] = molecular target: T1, cAMP and cAMP-inhibited cGMP 3',5'-cyclic phosphodiesterase 10A; assay: Inhibition of PDE10A by fluorescence polarization assay
[5] = system: Mus musculus; assay: Antipsychotic activity in NMRI mouse assessed as inhibition of phencyclidine-induced hyperlocomotion at 5 mg/kg, sc administered 60 mins prior to phencyclidine challenge measured up to 60 mins relative to vehicle-treated control; format: functional; conditions: route subcutaneous
[6] = molecular target: T1, cAMP and cAMP-inhibited cGMP 3',5'-cyclic phosphodiesterase 10A; assay: Inhibition of human PDE10A1 using [3H]cAMP as substrate after 20 mins by TopCount scintillation counting
[7] = Inhibition of mouse PDE10A7 using fluorescein labeled cAMP and cGMP as substrate after 60 mins by IMAP TR-FRET assay
[8] = molecular target: T1, cAMP and cAMP-inhibited cGMP 3',5'-cyclic phosphodiesterase 10A; assay: Inhibition of PDE10A at 1 uM
[9] = molecular target: T1, cAMP and cAMP-inhibited cGMP 3',5'-cyclic phosphodiesterase 10A; assay: Inhibition of human full length PDE10A using [3H]cGMP as substrate after 20 mins by scintillation proximity assay
[10] = Selectivity ratio of IC50 for PDE4 to IC50 for PDE10A
[11] = system: Rattus norvegicus; assay: Antipsychotic activity in sc dosed rat prepulse inhibition model; format: functional
[12] = system: Rattus norvegicus; assay: Antipsychotic activity in sc dosed rat assessed as decrease in amphetamine-induced spontaneous locomotor activity; format: functional
[13] = system: Rattus norvegicus; assay: Antipsychotic activity in sc dosed rat assessed as decrease in phencyclidine-induced locomotor activity; format: functional
[14] = system: Rattus norvegicus; assay: Antipsychotic activity in sc dosed rat assessed as decrease in spontaneous locomotor activity; format: functional
[15] = system: Rattus norvegicus; assay: Antipsychotic activity in sc dosed rat by conditioned avoidance response test; format: functional
[16] = molecular target: T1, cAMP and cAMP-inhibited cGMP 3',5'-cyclic phosphodiesterase 10A; assay: Inhibition of human full length PDE10A expressed in SF21 cells using [3H]cGMP as substrate after 60 mins by scintillation proximity assay
[17] = molecular target: T1, cAMP and cAMP-inhibited cGMP 3',5'-cyclic phosphodiesterase 10A; assay: Inhibition of PDE10A by cell-based assay
[18] = molecular target: T1, cAMP and cAMP-inhibited cGMP 3',5'-cyclic phosphodiesterase 10A; assay: Inhibition of PDE10A at 0.1 uM relative to control

T1 sequence (Q9Y233 whole entry): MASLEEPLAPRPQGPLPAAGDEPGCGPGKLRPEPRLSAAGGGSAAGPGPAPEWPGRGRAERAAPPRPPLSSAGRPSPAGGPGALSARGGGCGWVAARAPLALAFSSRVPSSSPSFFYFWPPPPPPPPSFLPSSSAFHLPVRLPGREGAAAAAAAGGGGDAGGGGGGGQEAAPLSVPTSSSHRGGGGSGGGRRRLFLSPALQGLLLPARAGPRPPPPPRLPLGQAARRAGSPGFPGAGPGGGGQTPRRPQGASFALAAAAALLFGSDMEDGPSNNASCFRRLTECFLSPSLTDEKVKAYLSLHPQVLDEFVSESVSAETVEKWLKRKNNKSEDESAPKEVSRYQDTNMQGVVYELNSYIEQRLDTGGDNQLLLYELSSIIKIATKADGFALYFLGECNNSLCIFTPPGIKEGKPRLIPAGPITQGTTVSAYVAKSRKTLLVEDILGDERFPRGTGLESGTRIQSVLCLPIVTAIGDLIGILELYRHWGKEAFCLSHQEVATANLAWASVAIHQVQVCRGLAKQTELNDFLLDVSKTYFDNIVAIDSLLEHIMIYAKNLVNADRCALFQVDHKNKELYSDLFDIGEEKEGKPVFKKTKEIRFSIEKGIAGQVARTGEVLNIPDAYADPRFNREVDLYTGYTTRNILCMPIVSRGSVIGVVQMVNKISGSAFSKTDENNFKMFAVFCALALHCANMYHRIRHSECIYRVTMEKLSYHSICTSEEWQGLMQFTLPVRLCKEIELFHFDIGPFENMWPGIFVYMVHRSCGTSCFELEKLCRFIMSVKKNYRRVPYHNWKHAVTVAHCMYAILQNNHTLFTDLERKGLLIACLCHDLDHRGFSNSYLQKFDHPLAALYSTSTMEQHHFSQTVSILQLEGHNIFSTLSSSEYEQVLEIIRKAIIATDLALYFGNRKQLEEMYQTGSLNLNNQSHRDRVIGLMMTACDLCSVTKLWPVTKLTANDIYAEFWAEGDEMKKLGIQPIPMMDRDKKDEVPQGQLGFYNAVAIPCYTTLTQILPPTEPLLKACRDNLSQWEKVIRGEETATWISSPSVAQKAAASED

IC50 [1]: < 10 nM
SMILES: O=C(NCCc1nc2ccccc2[nH]1)c1cc(Br)cn2nc(C3CC3)nc12

IC50 [2]: 0.22 nM
SMILES: Cc1nc2ccccc2nc1OCc1cc(OC2CCOCC2)nc(N2CCCC2)n1

IC50 [3]: 0.11 nM
SMILES: Cc1nc2ccccc2nc1-c1cc2nc(N3CCCC3)cc(NC3CCOCC3)n2n1

Ki [4]: < 1000 nM
SMILES: c1cnc(N2CCOCC2)c(-c2ccc(OCc3ccc4ccccc4n3)cc2)c1

IC50 [2]: 0.89 nM
SMILES: Cc1nc2ccccc2nc1/C=C/c1nc(OC2CCOCC2)cc(N2CCCC2)n1

IC50 [2]: 3.3 nM
SMILES: Cc1nc2ccccc2nc1CCc1nc(C(=O)NC[C@@H]2CCCO2)cc(N2CCCC2)n1

IC50 [7]: 2.3 nM
SMILES: OCC1CCN(c2nccnc2OC2CN(c3ccc4ccccc4n3)C2)CC1

Ki [4]: < 1000 nM
SMILES: O=S(=O)(c1cccc2c1CN(c1nc(NCc3ccncc3)c3ccncc3n1)CC2)N1CCOCC1

IC50 [7]: 19.6 nM
SMILES: Cc1cc(-c2cccnc2O[C@H]2CC[C@H](Nc3nc4ccccc4s3)CC2)ccn1

inhibition [8]: 98%
IC50 [2]: < 100 nM
SMILES: Clc1ccc(/C=C(/Cn2ncnn2)c2ccc(OCc3ccc4ccccc4n3)cc2)cc1

IC50 [9]: < 1 nM
SMILES: Cn1nc(-c2ccc3ccccc3n2)cc1NC(=O)c1nc(C2CC2)ccc1Nc1cncnc1

IC50 [2]: 0.44 nM
SMILES: COc1ccc(-c2cc(N3CCn4ccnc4C3)nc(/C=C/c3nc(N(C)C)c4ccccc4n3)n2)cc1OC

IC50 [6]: < 50 nM
SMILES: CC1(C)OC(=O)C(c2ccc(OCc3ccc4ccccc4n3)cc2)=C1c1ccncc1

EC300 [17]: < 0.5 µM
IC50 [2]: < 500 nM
SMILES: Cn1c(CCc2ccc3ncccc3n2)nc2c3cccnc3ccc21

Further lines, the compound ahead of its results:

SMILES: Cc1nc2ccc(C(F)(F)F)cc2nc1/C=C/c1nc(N[C@@H]2CCS(=O)(=O)C2)cc(N2CCCC2)n1
IC50 [2]: 0.0033 nM

SMILES: COc1cc2c(cc1OC)-c1c(-c3cncc(-n4ccc5ccccc54)c3)nc(C)n1CC2
IC50 [1]: < 10 nM

SMILES: Cc1ccc(C)n2nc(CCc3nc(-c4ccccc4)cn3C)nc12
inhibition in vivo at 5 mg/kg [5]: 99%

SMILES: Cc1ccc2c(=O)n(-c3ccc(O[11CH3])cc3)c(CCN3C(=O)c4cccc(OC(C)C)c4C3=O)nc2n1
Ki [4]: 0.1 nM

SMILES: CN(C(=O)COc1ccc(-c2c(-c3ccc(Cl)cc3)nc3sccn23)cc1)c1ccccn1
IC50 [1]: < 100 nM

SMILES: CN(/N=C/c1cccc2cnccc12)C(=O)C1CC1c1ccc(C(C)(C)C)cc1 (configuration not stated)
IC50 [6]: < 50 nM

SMILES: CC(C)(C)c1ccc(C2CC2C(=O)N/N=C/c2cccc3cnccc23)cc1 (configuration not stated)
IC50 [6]: < 50 nM

SMILES: O=C(N/N=C/c1cccc2cnccc12)C1CC1c1ccc(-c2ccccc2)cc1 (configuration not stated)
IC50 [6]: < 50 nM

SMILES: Cc1ccc2nc(C)c(-c3cc4nc(N5CCC[C@H]5CO)cc(N(C5CCOCC5)C5CC5)n4n3)nc2c1
IC50 [3]: 0.0068 nM

SMILES: COc1cc(-c2ccc(C(=O)C(OC)c3ccc(-c4nnc(C)o4)cc3)o2)cc(OC)c1OC (configuration not stated)
IC50 [1]: < 1000 nM

SMILES: COc1cncc(-c2ncn3c2-c2cc(OC)c(OC)cc2CC3)c1
IC50 [1]: < 10 nM

SMILES: Cc1cnc(C)n2nc(CCc3nc(-c4ccccc4)cn3C)nc12
inhibition in vivo at 5 mg/kg [5]: 96%

SMILES: COc1ccc(C2CC(=O)N(Cc3ccc(-c4cccnc4)cc3F)C2)c2c1oc1ccccc12 (single isomer, unassigned; (+))
Ratio IC50 [10]: > 670
IC50 [2]: 15 nM

SMILES: COc1cc2c(cc1OC)-c1c(-c3cnc(N4CCOCC4)s3)ncn1CC2
IC50 [1]: < 10 nM

SMILES: Cc1ncc(C)n2nc(CCc3c[nH]c(-c4cccs4)n3)nc12
IC50 [2]: 0.34 nM

SMILES: O=C(CCCN1CCC(O)(c2ccc(Cl)cc2)CC1)c1ccc(F)cc1 [HALOPERIDOL]
ED50 [11]: 0.32 mg/kg
ED50 [12]: 0.02 mg/kg
ED50 [13]: 0.13 mg/kg
ED50 [14]: 0.07 mg/kg
ED50 [15]: 0.04 mg/kg

SMILES: COc1cccc2c1C(=O)N(CCc1nc3ccccc3c(=O)n1-c1ccc3cnn([11CH3])c3c1)C2=O
Ki [4]: 0.95 nM

SMILES: COc1cn(-c2ccc(-n3cccn3)cc2F)nc(-c2ccnn2-c2cccc(Cl)c2)c1=O
IC50 [16]: < 10 nM

SMILES: COc1ccc(C2CC(=O)N(Cc3ccc(-c4ccno4)cc3)C2)c2c1oc1ccccc12 (racemic)
Ratio IC50 [10]: 57
IC50 [2]: 17 nM

SMILES: COCCn1nc(-c2ccccn2)cc1NC(=O)c1nc(C2CC2)ccc1Nc1cncnc1
IC50 [9]: < 1 nM

SMILES: O=c1[nH]c(CCc2nc(-c3ccsc3)c[nH]2)nc2ccccc12
EC300 [17]: < 0.5 µM
IC50 [2]: < 500 nM

SMILES: CCn1c(=O)n(-c2ccc(Nc3nc4ccc(F)cc4s3)cc2)c2ncccc21
inhibition [18]: 102%

SMILES: Cc1ncccc1-c1cccc(-c2nc(NCc3ccncc3)c3ccncc3n2)c1
Ki [4]: < 1000 nM

SMILES: Cc1ccc(C)n2nc(CCc3nc(-c4ccsc4)nn3C)nc12
IC50 [2]: 5.3 nM
